test system: not listed separately; experiment: Antiproliferative activity against human RXF393 cells assessed as growth inhibition after 48 hrs by sulforhodamine B assay; format: functional; settings: RXF 393, 48 h

| SMILES | GI50 [nM] | TGI [nM] |
| --- | --- | --- |
| CNC(=O)c1cc(Oc2ccc3nc(NC(=O)Nc4cc(C(F)(F)F)cc(C(F)(F)F)c4)sc3c2)ccn1 | 1250 | 2990 |

same assay, conditions: RXF 393, 48 h, read-out: LC50 (the source's name)

| SMILES | CC50 [nM] |
| --- | --- |
| CNC(=O)c1cc(Oc2ccc3nc(NC(=O)Nc4cc(C(F)(F)F)cc(C(F)(F)F)c4)sc3c2)ccn1 | 7160 |

test system: 786-0; experiment: Antiproliferative activity against human 786-0 cells assessed as growth inhibition after 48 hrs by sulforhodamine B assay; format: functional; settings: 786-0, 48 h

| SMILES | GI50 [nM] | LC50 [nM] | TGI [nM] |
| --- | --- | --- | --- |
| CNC(=O)c1cc(Oc2ccc3nc(NC(=O)Nc4cc(C(F)(F)F)cc(C(F)(F)F)c4)sc3c2)ccn1 | 1420 | 5760 | 2860 |

test system: NCI-H23; experiment: Antiproliferative activity against human NCI-H23 cells assessed as cell growth at 10^-7 M after 48 hrs by sulforhodamine B assay; format: functional; settings: NCI-H23, 48 h, read-out: Activity

| SMILES | growth at 0.1 µM [%] |
| --- | --- |
| CNC(=O)c1cc(Oc2ccc3nc(NC(=O)Nc4cc(C(F)(F)F)cc(C(F)(F)F)c4)sc3c2)ccn1 | 95 |

test system: not listed separately; experiment: Antiproliferative activity against human HCT116 cells assessed as cell growth at 10^-7 M after 48 hrs by sulforhodamine B assay; format: functional; settings: HCT-116, 48 h, read-out: Activity

| SMILES | growth at 0.1 µM [%] |
| --- | --- |
| CNC(=O)c1cc(Oc2ccc3nc(NC(=O)Nc4cc(C(F)(F)F)cc(C(F)(F)F)c4)sc3c2)ccn1 | 105 |

test system: SK-MEL-28; experiment: Antiproliferative activity against human SK-MEL-28 cells assessed as growth inhibition after 48 hrs by sulforhodamine B assay; format: functional; settings: SK-MEL-28, 48 h

| SMILES | GI50 [nM] | TGI [nM] |
| --- | --- | --- |
| CNC(=O)c1cc(Oc2ccc3nc(NC(=O)Nc4cc(C(F)(F)F)cc(C(F)(F)F)c4)sc3c2)ccn1 | 1290 | 2930 |

same assay, conditions: SK-MEL-28, 48 h, read-out: LC50 (the source's name)

| SMILES | CC50 [nM] |
| --- | --- |
| CNC(=O)c1cc(Oc2ccc3nc(NC(=O)Nc4cc(C(F)(F)F)cc(C(F)(F)F)c4)sc3c2)ccn1 | 6620 |

test system: Malme-3M; experiment: Antiproliferative activity against human MALME-3M cells assessed as cell growth at 10^-7 M after 48 hrs by sulforhodamine B assay; format: functional; settings: read-out: Activity

| SMILES | growth at 0.1 µM [%] |
| --- | --- |
| CNC(=O)c1cc(Oc2ccc3nc(NC(=O)Nc4cc(C(F)(F)F)cc(C(F)(F)F)c4)sc3c2)ccn1 | 90 |

test system: SK-MEL-5; experiment: Antiproliferative activity against human SK-MEL-5 cells assessed as cell growth at 10^-7 M after 48 hrs by sulforhodamine B assay; format: functional; settings: SK-MEL-5, 48 h, read-out: Activity

| SMILES | growth at 0.1 µM [%] |
| --- | --- |
| CNC(=O)c1cc(Oc2ccc3nc(NC(=O)Nc4cc(C(F)(F)F)cc(C(F)(F)F)c4)sc3c2)ccn1 | 99 |

test system: not listed separately; experiment: Antiproliferative activity against human IGROV1 cells assessed as cell growth at 10^-7 M after 48 hrs by sulforhodamine B assay; format: functional; settings: IGROV-1, 48 h, read-out: Activity

| SMILES | growth at 0.1 µM [%] |
| --- | --- |
| CNC(=O)c1cc(Oc2ccc3nc(NC(=O)Nc4cc(C(F)(F)F)cc(C(F)(F)F)c4)sc3c2)ccn1 | 89 |

test system: not listed separately; experiment: Antiproliferative activity against human SF539 cells assessed as growth inhibition after 48 hrs by sulforhodamine B assay; format: functional; settings: SF-539, 48 h

| SMILES | GI50 [nM] | LC50 [nM] | TGI [nM] |
| --- | --- | --- | --- |
| CNC(=O)c1cc(Oc2ccc3nc(NC(=O)Nc4cc(C(F)(F)F)cc(C(F)(F)F)c4)sc3c2)ccn1 | 1240 | 6330 | 2800 |

test system: not listed separately; experiment: Antiproliferative activity against human SF268 cells assessed as growth inhibition after 48 hrs by sulforhodamine B assay; format: functional; settings: SF-268, 48 h

| SMILES | GI50 [nM] | LC50 (concentration killing 50% of cells) [nM] | TGI [nM] |
| --- | --- | --- | --- |
| CNC(=O)c1cc(Oc2ccc3nc(NC(=O)Nc4cc(C(F)(F)F)cc(C(F)(F)F)c4)sc3c2)ccn1 | 1270 | 6440 | 2860 |

test system: not listed separately; experiment: Antiproliferative activity against human HOP62 cells assessed as growth inhibition after 48 hrs by sulforhodamine B assay; format: functional; settings: HOP-62, 48 h

| SMILES | GI50 [nM] | LC50 [nM] | TGI [nM] |
| --- | --- | --- | --- |
| CNC(=O)c1cc(Oc2ccc3nc(NC(=O)Nc4cc(C(F)(F)F)cc(C(F)(F)F)c4)sc3c2)ccn1 | 1150 | 6790 | 2800 |

test system: EKVX; experiment: Antiproliferative activity against human EKVX cells assessed as growth inhibition after 48 hrs by sulforhodamine B assay; format: functional; settings: not given

| SMILES | GI50 [nM] | TGI [nM] |
| --- | --- | --- |
| CNC(=O)c1cc(Oc2ccc3nc(NC(=O)Nc4cc(C(F)(F)F)cc(C(F)(F)F)c4)sc3c2)ccn1 | 1290 | 4560 |

same assay, conditions: read-out: LC50 (the source's name)

| SMILES | CC50 [nM] |
| --- | --- |
| CNC(=O)c1cc(Oc2ccc3nc(NC(=O)Nc4cc(C(F)(F)F)cc(C(F)(F)F)c4)sc3c2)ccn1 | 59300 |

test system: not listed separately; experiment: Antiproliferative activity against human RPMI8226 cells assessed as growth inhibition after 48 hrs by sulforhodamine B assay; format: functional; settings: RPMI-8226, 48 h

| SMILES | GI50 [nM] |
| --- | --- |
| CNC(=O)c1cc(Oc2ccc3nc(NC(=O)Nc4cc(C(F)(F)F)cc(C(F)(F)F)c4)sc3c2)ccn1 | 1020 |
